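Protocol summary: plate cells (96-well), add compound at 5 concentrations, incubate 48 h, interpolate endpoints linearly. The concentration for 50% growth inhibition is given as GI50.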 Active and inactive are the calls of the source. No stated cut-off is given here; in the data, active = GI50 up to about 1.1 µM and inactive = higher.
How the values were obtained:
Assay in all cases: NCI tumour cell line growth inhibition, 48 h
Malme-3M = system: Malme-3M
A498 = system: A498
IGROV-1 = system: IGROV-1
OVCAR-4 = system: OVCAR-4
SK-MEL-28 = system: SK-MEL-28
HOP-62 = system: HOP-62
OVCAR-8 = system: OVCAR-8
K562 = system: K562
UO-31 = system: UO-31
SNB-75 = system: SNB-75
ACHN = system: ACHN
SF-295 = system: SF-295
KM12 = system: KM12
CAKI-1 = system: CAKI-1
NCI-H522 = system: NCI-H522
RXF 393 = system: RXF 393
SK-MEL-5 = system: SK-MEL-5

Measured: GI50

O=C1OCCC1(Cc1ccc(Cl)cc1)Cc1ccc(Cl)cc1
inactive: Malme-3M > 100 µM | A498 46 µM | IGROV-1 > 100 µM | OVCAR-4 36.2 µM | SK-MEL-28 > 100 µM | HOP-62 31.3 µM | OVCAR-8 64.6 µM | K562 > 100 µM | UO-31 54.7 µM | SNB-75 21.6 µM | ACHN > 100 µM | SF-295 34 µM | KM12 > 100 µM | CAKI-1 > 100 µM | NCI-H522 > 100 µM

COCOCCC#CCO
inactive: Malme-3M > 100 µM | A498 > 100 µM | IGROV-1 > 100 µM | SK-MEL-28 > 100 µM | OVCAR-8 > 100 µM | RXF 393 > 100 µM | K562 > 100 µM | UO-31 > 100 µM | SNB-75 > 100 µM | SK-MEL-5 72.8 µM | ACHN > 100 µM | SF-295 > 100 µM | KM12 > 100 µM | NCI-H522 68.4 µM

Cn1c2c(c3ccccc31)C1CCCCC1C1C(=O)NC(=O)C21 (stereo not drawn)
inactive: Malme-3M 32.1 µM | A498 22.5 µM | IGROV-1 > 100 µM | OVCAR-4 56.5 µM | SK-MEL-28 88.9 µM | OVCAR-8 66.2 µM | RXF 393 32.4 µM | K562 40.6 µM | UO-31 28.6 µM | SNB-75 33.1 µM | SK-MEL-5 45 µM | ACHN 35.2 µM | SF-295 57.7 µM | KM12 54.3 µM

COC(=O)C12C(=O)O[C@H](C)C1(O)C(C)C(=O)N2C (stereo partly drawn)
inactive: Malme-3M > 100 µM | IGROV-1 > 100 µM | OVCAR-4 > 100 µM | SK-MEL-28 > 100 µM | HOP-62 > 100 µM | OVCAR-8 > 100 µM | RXF 393 > 100 µM | K562 > 100 µM | UO-31 > 100 µM | SK-MEL-5 > 100 µM | SF-295 > 100 µM | KM12 > 100 µM | CAKI-1 > 100 µM

O=C(/C=C/c1ccc(Cl)c(Cl)c1)c1ccc(F)cc1
inactive: Malme-3M 34.3 µM | A498 50.9 µM | IGROV-1 20.3 µM | OVCAR-4 19.2 µM | SK-MEL-28 18.6 µM | HOP-62 > 100 µM | OVCAR-8 16.7 µM | K562 4.33 µM | UO-31 > 100 µM | SNB-75 22.9 µM | SK-MEL-5 19.9 µM | ACHN 17.8 µM | SF-295 20.2 µM | KM12 8.65 µM | CAKI-1 18.5 µM | NCI-H522 4.45 µM

OCC(O)C(O)C(O)c1nn(-c2ccccc2)c2nc3cc(Cl)c(Cl)cc3nc12 (stereo not drawn)
inactive: Malme-3M 19.3 µM | IGROV-1 39.4 µM | OVCAR-4 35.6 µM | SK-MEL-28 48 µM | HOP-62 42.1 µM | OVCAR-8 70.8 µM | RXF 393 19.9 µM | K562 18.6 µM | UO-31 37.2 µM | SNB-75 20.3 µM | ACHN 25.1 µM | SF-295 56.5 µM | KM12 > 10 µM | CAKI-1 20 µM | NCI-H522 27.5 µM

CC1=NN(C(=O)Nc2ccc(Cl)cc2)C(=O)C2CCC(=O)N12 (stereo not drawn)
inactive: A498 > 100 µM | IGROV-1 > 100 µM | OVCAR-4 72.8 µM | SK-MEL-28 > 100 µM | HOP-62 > 100 µM | OVCAR-8 > 100 µM | RXF 393 > 100 µM | K562 3.19 µM | UO-31 61.2 µM | SNB-75 > 100 µM | SK-MEL-5 87.3 µM | ACHN 5.73 µM | SF-295 48.3 µM | KM12 28.9 µM | CAKI-1 60.3 µM

Nc1c(C(=O)Nc2ccccc2)[n+]([O-])c2ccccc2[n+]1[O-]
inactive: Malme-3M > 10 µM | A498 16.9 µM | IGROV-1 18.4 µM | OVCAR-4 17.6 µM | SK-MEL-28 17.8 µM | HOP-62 19.1 µM | OVCAR-8 36.8 µM | K562 17.1 µM | UO-31 21.2 µM | SNB-75 13 µM | SK-MEL-5 14.3 µM | ACHN 16.3 µM | SF-295 20.9 µM | KM12 14.2 µM | CAKI-1 5.6 µM | NCI-H522 2.09 µM

CCOP(=O)(OCC)C1CCCCOC1=O (stereo not drawn)
inactive: Malme-3M > 100 µM | A498 > 100 µM | IGROV-1 > 100 µM | OVCAR-4 > 100 µM | SK-MEL-28 > 100 µM | HOP-62 > 100 µM | OVCAR-8 > 100 µM | RXF 393 > 100 µM | K562 44 µM | UO-31 > 100 µM | SNB-75 > 100 µM | SK-MEL-5 > 100 µM | ACHN > 100 µM | SF-295 > 100 µM | KM12 > 100 µM | CAKI-1 > 100 µM

CCN(CC)CCCC(C)Nc1ccnc2ccc3nn(C)nc3c12 (stereo not drawn)
inactive: Malme-3M 50.6 µM | A498 37 µM | IGROV-1 > 100 µM | HOP-62 76.6 µM | OVCAR-8 41.4 µM | K562 23.4 µM | UO-31 40 µM | SNB-75 > 100 µM | SK-MEL-5 > 100 µM | ACHN 65.3 µM | SF-295 44.7 µM | KM12 42.3 µM | CAKI-1 > 100 µM

CC1=C(C(=O)CC(=O)C(=O)Nc2ccccc2)Sc2ccccc2N1
inactive: Malme-3M > 100 µM | A498 > 100 µM | IGROV-1 > 100 µM | OVCAR-4 > 100 µM | SK-MEL-28 > 100 µM | HOP-62 > 100 µM | OVCAR-8 > 100 µM | RXF 393 > 100 µM | K562 > 100 µM | UO-31 > 100 µM | SK-MEL-5 > 100 µM | ACHN > 100 µM | SF-295 > 100 µM | KM12 > 100 µM | NCI-H522 > 100 µM

O=C(Cc1ccccc1)N/N=C(/c1nc2ccc([N+](=O)[O-])cc2nc1O)C(O)c1ccco1 (stereo not drawn)
inactive: Malme-3M > 100 µM | A498 > 100 µM | IGROV-1 > 100 µM | OVCAR-4 > 100 µM | SK-MEL-28 > 100 µM | HOP-62 > 100 µM | OVCAR-8 > 100 µM | K562 44.4 µM | UO-31 > 100 µM | SNB-75 > 100 µM | SK-MEL-5 66.4 µM | ACHN 57.4 µM | SF-295 > 100 µM | KM12 > 100 µM | CAKI-1 60.8 µM | NCI-H522 12.6 µM

C=C(CO)CC(/C=C(\C)CC/C=C(\C)CCl)OC(C)=O (stereo not drawn)
inactive: A498 > 100 µM | IGROV-1 > 100 µM | OVCAR-4 > 100 µM | SK-MEL-28 > 100 µM | HOP-62 > 100 µM | OVCAR-8 > 100 µM | RXF 393 > 100 µM | K562 > 100 µM | UO-31 > 100 µM | SNB-75 > 100 µM | SK-MEL-5 > 100 µM | ACHN > 100 µM | SF-295 > 100 µM | KM12 > 100 µM | NCI-H522 > 100 µM
